Measurements reported in patent EP0281245B1, “Cytochrome P-450 enzymes” (Sankyo Company Limited, priority 1987, dated 1988).
Counter-ions that a name gives are not always drawn. Like-named read-outs stand apart in the source and are kept apart here.

Tests used:
Experiment in all cases: Effect of potential inhibitors and metallic ions on rate of formation of pravastatin sodium from sodium ML-236B carboxylate (method ii)
P-450sca-3 = assay type: biochemical, Streptomyces carbophilus
Description: (§1) (ii) Measurement of rate of formation of pravastatin sodium from sodium ML-236B carboxylate
(§2) The following cocktail of components is employed:
(§3) The components of the Table are mixed, the solution is shaken at 30°C for 5 minutes, and then 10 »l of 6 N NaOH is added and the reaction stopped. The amount of pravastatin sodium formed by the enzyme system is determined with HPLC.
(§4) The effects of potential inhibitors against cytochrome P-450sca-1 P-450sca-2, P-450sca-3 and the effects of metallic ions on the action of the cytochrome P-450 can be assessed quantitatively using the method (ii).

cytochrome P-450sca-1 = assay type: biochemical, Streptomyces carbophilus; details: for Residual activity of enzyme P-450sca-1: 5 min; for inhibition of cytochrome (in words): each cytochrome
Description: as §2, §3, §4

P-450sca-2 = biological target: T1, P-450sca-2 (Streptomyces carbophilus, UniProt Q59831); assay type: biochemical; details: for remaining activity at 2000 µM: read-out: Residual activity of enzyme P-450sca-2
T1 construct: made in house; host or cells: Streptomyces carbophilus SANK 62585 (FERM BP-1145), native producer, not recombinant
T1 sequence (Q59831 1-410): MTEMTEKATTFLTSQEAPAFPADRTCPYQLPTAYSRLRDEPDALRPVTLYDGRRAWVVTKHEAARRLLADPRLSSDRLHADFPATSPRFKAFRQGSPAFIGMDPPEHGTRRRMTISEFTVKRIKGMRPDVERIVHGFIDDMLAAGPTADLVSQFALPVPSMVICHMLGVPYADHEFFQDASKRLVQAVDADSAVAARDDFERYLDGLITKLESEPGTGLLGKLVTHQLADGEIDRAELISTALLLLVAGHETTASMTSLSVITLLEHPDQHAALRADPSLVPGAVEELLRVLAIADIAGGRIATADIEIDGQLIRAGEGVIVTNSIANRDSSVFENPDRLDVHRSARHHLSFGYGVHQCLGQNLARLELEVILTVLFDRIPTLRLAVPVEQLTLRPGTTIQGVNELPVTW
Description: as §1, §2, §3, §4

SMILES	inhibition of cytochrome (in words) (P-450sca-3; each cytochrome)	inhibition of cytochrome (in words) (cytochrome P-450sca-1)	inhibition of cytochrome (in words) (P-450sca-2; each cytochrome)	Residual activity of enzyme P-450sca-3 (P-450sca-3; 1 mM added compound)	Residual activity of enzyme P-450sca-1 (cytochrome P-450sca-1; 1 mM added compound)	Residual activity of enzyme P-450sca-2 (P-450sca-2; 1 mM added compound)	further results
[C-]#[O+] [CO, carbon monoxide]	inhibited	inhibited	inhibited				Residual activity of enzyme P-450sca-3 (P-450sca-3; CO bubbled in for 1 minute): 60.4%; Residual activity of enzyme P-450sca-1 (cytochrome P-450sca-1; CO bubbled in for 1 minute): 50.0%; Residual activity of enzyme P-450sca-2 (P-450sca-2; CO bubbled in for 1 minute): 55.0%
[Ca+2].[Cl-].[Cl-] [CaCl₂]				100.0%	100.0%	100.0%	
CN/C(=N/CCSCc1nc[nH]c1C)NC#N [Cimetidine]		inhibited					inhibition of cytochrome (in words) (P-450sca-3): inhibited; Residual activity of enzyme P-450sca-3 (P-450sca-3; 2000 µM): 43.8%; Residual activity of enzyme P-450sca-1 (cytochrome P-450sca-1; 2 mM added compound): 58.7%; inhibition of cytochrome (in words) (P-450sca-2): inhibited; remaining activity at 2000 µM (P-450sca-2): 45.7%
[Cl-].[Cl-].[Co+2] [CoCl₂]	inhibited	inhibited	inhibited	60.1%	65.0%	67.5%	
[Cl][Cu][Cl] [CuCl₂]	inhibited	inhibited	inhibited	0%	0%	0%	
[Cl][Mn][Cl] [MnCl₂]	inhibited	inhibited	inhibited	17.5%	20.0%	18.7%	
CCCC(C(=O)OCCN(CC)CC)(c1ccccc1)c1ccccc1 [SKF-525A, 2-diethylaminoethyl-2,2-diphenyl valerate hydrochloride]	inhibited	inhibited	inhibited				Residual activity of enzyme P-450sca-3 (P-450sca-3; 2 mM added compound): 24.1%; Residual activity of enzyme P-450sca-1 (cytochrome P-450sca-1; 2 mM added compound): 25.8%; remaining activity at 2000 µM (P-450sca-2; 2 mM added compound): 22.8%
